Source: patent US7846959B2, “Raf modulators and methods of use” (Exelixis, Inc., priority 2004, dated 2010)
Where two headings read alike, the source gives them in different places.

What was measured:
c-Raf = c-Raf (Homo sapiens, UniProt P04049); assay: Luciferase-coupled chemiluminescence kinase assay (ATP consumption), c-Raf; type: biochemical
How it was run: (§1)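 Enzyme ([…]) was pre-incubated with compound for 30 min at room temperature in 20 mM Tris pH 7.5, 10 mM MgCl2, 0.03% TX-100, 1 mM DTT. ATP was added and the reaction ran 3 h at ambient temperature. Remaining ATP was read by luciferase-luciferin chemiluminescence, giving IC50 values.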

B-Raf = B-Raf (Homo sapiens, UniProt P15056); assay: Luciferase-coupled chemiluminescence kinase assay (ATP consumption), B-Raf; type: biochemical
How it was run: as §1

[1] = read-out: cRaf-1 (inhibition indicated as IC50)
[2] = read-out: bRaf (inhibition indicated as IC50)

c-Raf, sequence (P04049 whole entry): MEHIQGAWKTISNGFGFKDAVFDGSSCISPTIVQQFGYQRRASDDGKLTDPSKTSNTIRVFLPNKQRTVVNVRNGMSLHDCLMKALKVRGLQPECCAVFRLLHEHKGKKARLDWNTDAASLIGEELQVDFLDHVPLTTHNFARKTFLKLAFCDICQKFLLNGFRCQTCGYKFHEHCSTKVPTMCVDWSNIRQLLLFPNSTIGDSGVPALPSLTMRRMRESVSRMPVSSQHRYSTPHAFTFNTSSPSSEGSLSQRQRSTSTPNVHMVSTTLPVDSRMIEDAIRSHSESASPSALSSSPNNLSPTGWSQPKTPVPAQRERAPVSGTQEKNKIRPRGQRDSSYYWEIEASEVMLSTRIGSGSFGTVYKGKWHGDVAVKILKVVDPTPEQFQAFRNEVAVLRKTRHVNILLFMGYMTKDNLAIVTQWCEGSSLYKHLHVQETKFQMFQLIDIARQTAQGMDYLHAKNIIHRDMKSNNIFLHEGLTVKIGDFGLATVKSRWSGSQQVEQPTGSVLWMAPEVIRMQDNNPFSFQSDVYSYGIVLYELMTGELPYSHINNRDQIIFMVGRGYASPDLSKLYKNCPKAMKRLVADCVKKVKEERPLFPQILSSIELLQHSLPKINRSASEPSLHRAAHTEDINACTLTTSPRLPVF
B-Raf, sequence (P15056 whole entry): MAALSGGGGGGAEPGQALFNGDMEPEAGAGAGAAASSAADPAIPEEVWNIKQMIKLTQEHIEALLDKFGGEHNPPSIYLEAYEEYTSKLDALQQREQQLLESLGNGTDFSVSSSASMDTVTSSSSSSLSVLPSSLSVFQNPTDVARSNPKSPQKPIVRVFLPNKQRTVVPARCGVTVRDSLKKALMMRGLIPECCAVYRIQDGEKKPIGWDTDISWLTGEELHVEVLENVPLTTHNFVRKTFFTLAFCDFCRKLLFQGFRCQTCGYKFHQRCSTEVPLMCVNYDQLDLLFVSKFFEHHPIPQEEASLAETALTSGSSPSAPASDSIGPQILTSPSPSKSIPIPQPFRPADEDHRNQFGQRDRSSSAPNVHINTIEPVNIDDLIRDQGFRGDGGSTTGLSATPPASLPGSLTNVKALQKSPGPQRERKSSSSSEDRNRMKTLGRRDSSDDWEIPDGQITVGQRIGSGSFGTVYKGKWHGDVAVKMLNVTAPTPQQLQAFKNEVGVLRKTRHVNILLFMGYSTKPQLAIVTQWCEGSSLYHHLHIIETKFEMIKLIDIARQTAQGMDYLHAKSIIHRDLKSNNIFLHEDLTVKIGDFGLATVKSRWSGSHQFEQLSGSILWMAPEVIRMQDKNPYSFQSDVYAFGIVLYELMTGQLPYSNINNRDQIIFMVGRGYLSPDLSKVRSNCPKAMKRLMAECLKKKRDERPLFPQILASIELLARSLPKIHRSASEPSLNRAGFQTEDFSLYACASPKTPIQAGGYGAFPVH

Row | SMILES | IC50 (c-Raf; read-out: cRaf-1 IC50) | IC50 (B-Raf; read-out: bRaf IC50) | IC50 (c-Raf; [1]) | IC50 (B-Raf; [2])
1 | COC(=O)Nc1nc2cc(C3(O)c4ccccc4C(=O)N3Cc3ccncc3)ccc2[nH]1 (stereo not drawn) [Entry 112, methyl {5-[1-hydroxy-3-oxo-2-(pyridin-4-ylmethyl)-2,3-dihydro-1H-isoindol-1-yl]-1H-benzimidazol-2-yl}carbamate] | 1000 to 10000 nM | ≥ 10000 nM |  | 
2 | COC(=O)Nc1nc2ccc(C3(O)c4ccccc4C(=O)N3c3ccc(Cl)c(Cl)c3F)cc2[nH]1 (stereo not drawn) [Entry 228, methyl {6-[2-(3,4-dichloro-2-fluorophenyl)-1-hydroxy-3-oxo-2,3-dihydro-1H-isoindol-1-yl]-1H-benzimidazol-2-yl}carbamate] | < 100 nM | < 100 nM |  | 
3 | COC(=O)Nc1nc2cc(C3(O)c4ccccc4C(=O)N3C3CCc4ccccc43)ccc2[nH]1 (stereo not drawn) [Entry 191, methyl {5-[2-(2,3-dihydro-1H-inden-1-yl)-1-hydroxy-3-oxo-2,3-dihydro-1H-isoindol-1-yl]-1H-benzimidazol-2-yl}carbamate] | < 100 nM | < 100 nM |  | 
4 | O=C1c2ccccc2C(O)(c2ccc3cc[nH]c3c2)N1Cc1ccccc1 (stereo not drawn) [Entry 65, 3-hydroxy-3-(1H-indol-6-yl)-2-(phenylmethyl)-2,3-dihydro-1H-isoindol-1-one] | ≥ 10000 nM | ≥ 10000 nM |  | 
5 | C#Cc1cccc(N2C(=O)c3ccccc3C2(O)c2ccc3[nH]c(NC(=O)OC)nc3c2)c1 (stereo not drawn) [Entry 179, methyl {5-[2-(3-ethynylphenyl)-1-hydroxy-3-oxo-2,3-dihydro-1H-isoindol-1-yl]-1H-benzimidazol-2-yl}carbamate] | < 100 nM | < 100 nM |  | 
6 | COC(=O)Nc1nc2cc(C3(O)c4ccccc4C(=O)N3c3cccc(I)c3)ccc2[nH]1 (stereo not drawn) [Entry 203, methyl {5-[1-hydroxy-2-(3-iodophenyl)-3-oxo-2,3-dihydro-1H-isoindol-1-yl]-1H-benzimidazol-2-yl}carbamate] | < 100 nM | < 100 nM |  | 
7 | COC(=O)Nc1nc2cc(C3(O)c4ccccc4C(=O)N3CC3CC3)ccc2[nH]1 (stereo not drawn) [Entry 153, methyl {5-[2-(cyclopropylmethyl)-1-hydroxy-3-oxo-2,3-dihydro-1H-isoindol-1-yl]-1H-benzimidazol-2-yl}carbamate] | 100 to 1000 nM | 100 to 1000 nM |  | 
8 | COC(=O)Nc1nc2cc(C3(O)c4ccccc4C(=O)N3c3cccc(Oc4ccccc4)c3)ccc2[nH]1 (stereo not drawn) [Entry 220, methyl (5-{1-hydroxy-3-oxo-2-[3-(phenyloxy)phenyl]-2,3-dihydro-1H-isoindol-1-yl}-1H-benzimidazol-2-yl)carbamate] | < 100 nM | < 100 nM |  | 
9 | O=C1COc2ccc(C3(O)c4ccccc4C(=O)N3Cc3cccc(OC(F)(F)F)c3)cc2N1 (stereo not drawn) [Entry 56, 6-[1-hydroxy-3-oxo-2-({3-[(trifluoromethyl)oxy]phenyl}methyl)-2,3-dihydro-1H-isoindol-1-yl]-2H-1,4-benzoxazin-3(4H)-one] | ≥ 10000 nM | ≥ 10000 nM |  | 
10 | COC(=O)Nc1nc2cc(C3(O)c4ccccc4C(=O)N3Cc3cccnc3)ccc2[nH]1 (stereo not drawn) [Entry 113, methyl {5-[1-hydroxy-3-oxo-2-(pyridin-3-ylmethyl)-2,3-dihydro-1H-isoindol-1-yl]-1H-benzimidazol-2-yl}carbamate] | 100 to 1000 nM | 100 to 1000 nM |  | 
11 | O=C1COc2ccc(C3(O)c4ccccc4C(=O)N3c3cccc(F)c3)cc2N1 (stereo not drawn) [Entry 39, 6-[2-(3-fluorophenyl)-1-hydroxy-3-oxo-2,3-dihydro-1H-isoindol-1-yl]-2H-1,4-benzoxazin-3(4H)-one] | 100 to 1000 nM | 1000 to 10000 nM |  | 
12 | O=C(Nc1nc2cc(C3(O)c4ccccc4C(=O)N3Cc3ccccc3)ccc2[nH]1)N1CCOCC1 (stereo not drawn) [Entry 188, N-{5-[1-hydroxy-3-oxo-2-(phenylmethyl)-2,3-dihydro-1H-isoindol-1-yl]-1H-benzimidazol-2-yl}morpholine-4-carboxamide] | 100 to 1000 nM | 1000 to 10000 nM |  | 
13 | COC(=O)Nc1nc2cc(C3(O)c4ccccc4C(=O)N3c3cccc(Cl)c3F)ccc2[nH]1 (stereo not drawn) [Entry 224, methyl {5-[2-(3-chloro-2-fluorophenyl)-1-hydroxy-3-oxo-2,3-dihydro-1H-isoindol-1-yl]-1H-benzimidazol-2-yl}carbamate] | < 100 nM | < 100 nM |  | 

The remaining lines, values ahead:

Row | IC50 (c-Raf; read-out: cRaf-1 IC50) | IC50 (B-Raf; read-out: bRaf IC50) | IC50 (c-Raf; [1]) | IC50 (B-Raf; [2]) | SMILES
14 | 100 to 1000 nM | 100 to 1000 nM |  |  | COC(=O)Nc1nc2cc(C3(O)c4ccccc4C(=O)N3c3cccc(S(N)(=O)=O)c3)ccc2[nH]1 (stereo not drawn) [Entry 236, methyl (5-{2-[3-(aminosulfonyl)phenyl]-1-hydroxy-3-oxo-2,3-dihydro-1H-isoindol-1-yl}-1H-benzimidazol-2-yl)carbamate]
15 |  |  | < 100 nM | < 100 nM | O=C1c2ccccc2C(O)(c2ccc3[nH]c(Nc4cnccn4)nc3c2)N1c1cccc(Cl)c1F (stereo not drawn) [Entry 361, 2-(3-chloro-2-fluorophenyl)-3-hydroxy-3-[2-(pyrazin-2-ylamino)-1H-benzimidazol-5-yl]-2,3-dihydro-1H-isoindol-1-one]
16 |  |  | 100 to 1000 nM | < 100 nM | C#Cc1cc(Cl)cc(N2C(=O)c3ccccc3C2(O)c2ccc3[nH]c(NC(=O)OC)nc3c2)c1C (stereo not drawn) [Entry 351, methyl {5-[2-(5-chloro-3-ethynyl-2-methylphenyl)-1-hydroxy-3-oxo-2,3-dihydro-1H-isoindol-1-yl]-1H-benzimidazol-2-yl}carbamate]
17 |  |  | < 100 nM | < 100 nM | C=Cc1cccc(NC(=O)c2ccccc2C(=O)c2ccc3nc(NC(=O)OC)[nH]c3c2)c1 [Entry 413, methyl {6-[(2-{[(3-ethenylphenyl)amino]carbonyl}phenyl)carbonyl]-1H-benzimidazol-2-yl}carbamate]
18 |  |  | < 100 nM | < 100 nM | O=C(Nc1nc2ccc(C3(O)c4ccccc4C(=O)N3c3cccc(Cl)c3F)cc2[nH]1)C1CC1(F)F (stereo not drawn) [Entry 329, N-{6-[2-(3-chloro-2-fluorophenyl)-1-hydroxy-3-oxo-2,3-dihydro-1H-isoindol-1-yl]-1H-benzimidazol-2-yl}-2,2-difluorocyclopropanecarboxamide]
19 |  |  | < 100 nM | < 100 nM | COc1cccc(N2C(=O)c3ccccc3C2(O)c2ccc3[nH]c(Nc4cnccn4)nc3c2)c1 (stereo not drawn) [Entry 391, 3-hydroxy-2-[3-(methyloxy)phenyl]-3-[2-(pyrazin-2-ylamino)-1H-benzimidazol-5-yl]-2,3-dihydro-1H-isoindol-1-one]
20 | 1000 to 10000 nM | 1000 to 10000 nM |  |  | COC(=O)Nc1nc2cc(C3(O)c4ccccc4C(=O)N3c3cccc(OC(F)(F)C(F)F)c3)ccc2[nH]1 (stereo not drawn) [Entry 255, methyl [5-(1-hydroxy-3-oxo-2-{3-[(1,1,2,2-tetrafluoroethyl)oxy]phenyl}-2,3-dihydro-1H-isoindol-1-yl)-1H-benzimidazol-2-yl]carbamate]
21 |  |  | < 100 nM | < 100 nM | CC(=O)N1CCC(C(=O)Nc2nc3cc(C4(O)c5ccccc5C(=O)N4c4cccc(Cl)c4F)ccc3[nH]2)CC1 (stereo not drawn) [Entry 326, 1-acetyl-N-{5-[2-(3-chloro-2-fluorophenyl)-1-hydroxy-3-oxo-2,3-dihydro-1H-isoindol-1-yl]-1H-benzimidazol-2-yl}piperidine-4-carboxamide]
22 |  |  | < 100 nM | < 100 nM | COC(=O)Nc1nc2ccc(C(=O)c3ccccc3C(=O)Nc3cccc(C(F)(F)F)c3)cc2[nH]1 [Entry 398, methyl (6-{[2-({[3-(trifluoromethyl)phenyl]amino}carbonyl)phenyl]carbonyl}-1H-benzimidazol-2-yl)carbamate]
23 |  |  | 1000 to 10000 nM | 1000 to 10000 nM | COC(=O)Nc1nc2cc(C3(O)c4ccccc4C(=O)N3CC3CCNC3)ccc2[nH]1 (stereo not drawn) [Entry 301, methyl {5-[1-hydroxy-3-oxo-2-(pyrrolidin-3-ylmethyl)-2,3-dihydro-1H-isoindol-1-yl]-1H-benzimidazol-2-yl}carbamate]
24 |  |  | < 100 nM | < 100 nM | O=C(Nc1nc2cc(C3(O)c4ccccc4C(=O)N3c3cccc(Cl)c3F)ccc2[nH]1)C1CC1 (stereo not drawn) [Entry 335, N-{5-[2-(3-chloro-2-fluorophenyl)-1-hydroxy-3-oxo-2,3-dihydro-1H-isoindol-1-yl]-1H-benzimidazol-2-yl}cyclopropanecarboxamide]
